Measurements as given in patent US9017950B2, “Method for enhancing enzyme assays” (Luminescent MD, LLC, priority 2011, dated 2015).

Legend:
Format in all cases: biochemical
[1] = target: T1, HRP (Armoracia rusticana, UniProt P00433); assay: Enzyme assay with OD4MI CL detection to quantify HRP in the presence of surfactant; conditions: for dynamic range of enzyme assay for quantifying HRP compared with absence of surfactant: surfactant at critical micelle concentration
T1 construct: purchased Sigma
T1 sequence (P00433 31-338 limits assumed): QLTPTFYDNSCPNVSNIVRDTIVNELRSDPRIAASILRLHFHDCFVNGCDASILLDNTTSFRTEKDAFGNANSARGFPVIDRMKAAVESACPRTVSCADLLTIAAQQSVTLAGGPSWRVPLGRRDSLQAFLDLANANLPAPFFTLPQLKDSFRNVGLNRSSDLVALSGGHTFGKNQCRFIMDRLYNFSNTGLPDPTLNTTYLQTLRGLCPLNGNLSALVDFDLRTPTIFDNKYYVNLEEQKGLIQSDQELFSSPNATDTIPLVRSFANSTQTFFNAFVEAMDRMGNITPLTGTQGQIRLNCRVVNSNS
Protocol: Various concentrations (0.5, 1.0, and 1.5%) of Triton® X surfactant derivatives (Triton® X-100, Triton® X-114, Triton® X-405, and Triton® X-705) were prepared in Tris-HCl buffer solution (pH 8.5).
Various surfactants (e.g., (2-Hydroxypropyl)-β-cyclodetrin, β-cyclodextrin, Carboxymethyl-β-cyclodextrin, Carbomethyl-β-cyclodextrin sodium salt, γ-cyclodextrin, Sodium dodecyl sulfate, Hexadecyltrimethylammonium bromide, Hexadecyltrimethylammonium chloride) of critical micelle concentration (CMC) were prepared in Tris-HCl buffer solution (pH 8.5).
As a substrate for ODI derivative CL detection, 2.0 μM Amplex® Red reagent in deionized water was prepared.
Various concentrations (0˜0.1 U/ml) of HRP containing 2.0 mM H2O2 was prepared in Tris-HCl buffer solution (pH 8.5).
1,1′-Oxalyldi-4-methyl-imidazole (OD4MI), one of ODI derivatives was formed from the reaction between 5.0 μM TCPO, and 10.0 μM 4-Methylimidazole (4MImH) in Ethyl acetate. 100 mM H2O2 was prepared in Isopropyl alcohol.
• 5. Mix and incubate 0.8 ml of Amplex® Red reagent (or deionized water), 0.1 ml of surfactant, one of various surfactants used in this research, and 0.1 ml of HRP containing H2O2 for 10 minutes in a 1.5 ml-centrifuge tube at room temperature. • 6. Pipette 10 μl of working solution into the assigned test tube (12×75 mm) or strip well. • 7. Insert the test tube into a luminometer or the strip well into a microplate luminometer. • 8. Read CL emitted when OD4MI and H2O2 are added into the test tube or strip well through two dispensers.

[2] = target: T2, AFP detection antibody-HRP conjugate (Armoracia rusticana, UniProt P00433); assay: Quantification of AFP using AFP detection antibody-HRP conjugate and OD4MI CL detection in the presence of Triton X-100; conditions: 0.1% Triton X-100, OD4MI CL detection, FIG. 6
T2 construct: AFP detection antibody (conjugated)
T2 sequence (P00433 31-338 limits assumed): T1 sequence (P00433 31-338 limits assumed)
Protocol: AccuLite® CLIA kit capable of quantifying AFP with luminol CL detection was used to develop new CLEIA method using OD4MI CL detection in the presence of 0.1% Triton® X-100 surfactant. The kit is composed of 96 strip wells coated with monoclonal AFP primary antibody, AFP detection antibody-HRP conjugate, luminol as a substrate, reaction buffer, and washing buffer.
2.0 μM Amplex® Red reagent and 0.2 mM H2O2 in deionized water were prepared in water containing 0.1% Triton® X-100 surfactant.
(§1) OD4MI was formed from the reaction between 5.0 μM TCPO and 10.0 μM 4-Methylimidazole (4MImH) in Ethyl acetate. 100 mM H2O2 was prepared in Isopropyl alcohol.
• 12. Pipette 25 μl of AFP standard or test sample into a strip well. • 13. Add 100 μl of AFP detection antibody-HRP conjugate to the strip well • 14. Swirl the strip wells for 20 seconds. • 15. Incubate for 30 minutes at 37° C. • 16. Discard the contents of each strip wells. • 17. Wash each plate with 300 μl washing buffer. Repeat four additional times. • 18. Add 100 μl working solution containing 2.0 μM Amplex® Red reagent, 0.2 mM H2O2 and 0.1% Triton® X-100 surfactant in the strip well. • 19. […] Read (integration time: 0.5 seconds) emitted CL for 0.5 seconds when OD4MI and H2O2 are added into the test tube or strip well through two dispensers.

[3] = target: T3, PSA detection antibody-HRP conjugate (Armoracia rusticana, UniProt P00433); assay: Quantification of PSA using PSA detection antibody-HRP conjugate and OD4MI CL detection (CLEIA) in the presence of catalyst
T3 construct: PSA detection antibody (conjugated)
T3 sequence (P00433 31-338 limits assumed): T1 sequence (P00433 31-338 limits assumed)
Protocol: AccuLite® CLIA kit capable of quantifying PSA with luminol CL detection was used to develop new CLEIA method using ODI derivative CL detection. The kit is composed of 96 strip wells coated with monoclonal PSA primary antibody, PSA detection antibody-HRP conjugate, luminol as a substrate, reaction buffer, and washing buffer.
8 different PSA serum samples (0, 0.5, 1, 2, 5, 10, 25, 50 ng/ml), components of AccuLite® CLIA kit, were used as standard samples.
2.0 μM Amplex® Red reagent and 0.2 mM H2O2 in deionized water were prepared as described in Example 1 (A).
0.5 mM 4-Iodophenol was prepared in Tris-HCl buffer solution (pH 8.5).
2.0 mM 4-(1,2,4-triazol-1-yl) phenol was prepared in Tris-HCl buffer solution (pH 8.5).
0.8 ml of aqueous solution containing Amplex® Red reagent (2.0 μM) and H2O2 (0.2 mM) was mixed with 0.2 ml of 4-Iodophenol (or 2.0 mM 4-(1,2,4-triazol-1-yl) phenol).
as §1
• 12. Pipette 25 μl of PSA standard or test sample into a strip well. • 13. Add 100 μl of PSA detection antibody-HRP conjugate to the strip well • 14. Swirl the strip wells for 20 seconds. • 15. Incubate for 20 minutes at 37° C. • 16. Discard the contents of each strip wells. • 17. Wash each plate with 300 μl washing buffer. Repeat four additional times. • 18. Add 100 μl working solution containing 2.0 μM Amplex® Red reagent and 0.2 mM H2O2 to each strip well. • 19. Incubate the strip-well containing Amplex® Red reagent, H2O2, and 4-Iodophenol (or 2.0 mM 4-(1,2,4-triazol-1-yl) phenol) for 5.0 minutes at room temperature (21˜23° C.) in the dark. • 20. Pipette 10 μl of working solution into the assigned test tube (12×75 mm). • 21. Insert the test tube into a luminometer or the strip well into a microplate luminometer. • 22. Read (integration time: 0.5 seconds) emitted CL for 0.5 seconds when OD4MI and H2O2 are added into the test tube or strip well through two dispensers.

| Molecule | dynamic range of enzyme assay for quantifying HRP compared with absence of surfactant ([1]; OD4MI CL detection) | further results |
| --- | --- | --- |
| OC[C@H]1O[C@@H]2O[C@H]3[C@H](O)[C@@H](O)[C@@H](O[C@H]4[C@H](O)[C@@H](O)[C@@H](O[C@H]5[C@H](O)[C@@H](O)[C@@H](O[C@H]6[C@H](O)[C@@H](O)[C@@H](O[C@H]7[C@H](O)[C@@H](O)[C@@H](O[C@H]8[C@H](O)[C@@H](O)[C@@H](O[C@H]9[C@H](O)[C@@H](O)[C@@H](O[C@H]1[C@H](O)[C@H]2O)O[C@@H]9CO)O[C@@H]8CO)O[C@@H]7CO)O[C@@H]6CO)O[C@@H]5CO)O[C@@H]4CO)O[C@@H]3CO [γ-cyclodextrin] | wider than that in the absence of surfactant | – |
| Triton® X-100 | – | dynamic range to quantify HRP compared with other Triton X derivatives ([1]; 1.0% surfactant, FIG. 5): wider than those in other Triton® X surfactant derivatives; effect on the reaction between Amplex Red reagent and H2O2 in the presence of HRP ([1]; OD4MI CL detection, FIG. 3 to 5): acting to interfere; dynamic range of enzyme assay to quantify HRP, upper end ([1]; higher Triton X-100 concentration, OD4MI CL detection, room temperature, FIG. 3): up to 0.1 U/ml; linear dynamic range for quantification of AFP [2]: 0˜1250 ng/ml |
| Oc1ccc(-n2cncn2)cc1 [4-(1,2,4-triazol-1-yl) phenol] | – | LOD, times lower than in the absence of catalyst [3]: ~10 times |
| Carboxymethyl-β-cyclodextrin | wider than that in the absence of surfactant | – |
| CCCCCCCCCCCCCCCC[N+](C)(C)C.[Br-] [Hexadecyltrimethylammonium bromide] | wider than that in the absence of surfactant | – |
| Carbomethyl-β-cyclodextrin sodium salt | wider than that in the absence of surfactant | – |
| (2-Hydroxypropyl)-β-cyclodetrin | wider than that in the absence of surfactant | – |
| OC[C@H]1O[C@@H]2O[C@H]3[C@H](O)[C@@H](O)[C@@H](O[C@H]4[C@H](O)[C@@H](O)[C@@H](O[C@H]5[C@H](O)[C@@H](O)[C@@H](O[C@H]6[C@H](O)[C@@H](O)[C@@H](O[C@H]7[C@H](O)[C@@H](O)[C@@H](O[C@H]8[C@H](O)[C@@H](O)[C@@H](O[C@H]1[C@H](O)[C@H]2O)O[C@@H]8CO)O[C@@H]7CO)O[C@@H]6CO)O[C@@H]5CO)O[C@@H]4CO)O[C@@H]3CO [β-cyclodextrin] | wider than that in the absence of surfactant | – |
| CCCCCCCCCCCCCCCC[N+](C)(C)C.[Cl-] [Hexadecyltrimethylammonium chloride] | wider than that in the absence of surfactant | – |
| Oc1ccc(I)cc1 [4-Iodophenol] | – | LOD, times lower than in the absence of catalyst [3]: about 20 times; LOD, times lower than in the presence of 4-(1,2,4-triazol-1-yl) phenol [3]: about 2 times |
| CCCCCCCCCCCCOS(=O)(=O)[O-].[Na+] [Sodium dodecyl sulfate] | wider than that in the absence of surfactant | – |
